Measured values: patent publication US7947661B2, “Compounds for the treatment of marihuana dependence, withdrawal, and usage” (priority 2004, dated 2011)

How the values were obtained:
[1] = cited from earlier work
[2] = cited from earlier work; remark: listed apart in the source
[3] = tested on: cocaine-dependent subjects; experiment: Weekly marihuana use from daily diaries, citicoline vs placebo for 8 weeks; assay type: in vivo, human; details: citicoline treatment weeks 3-10, not dependent on cannabis
Protocol: FIG. 1 is a graph of a time course of weekly marihuana use in citicoline- and placebo-treated cocaine-dependent subjects. Subjects were treated with either citicoline or placebo for 8 weeks and then asked to keep track of their drug use patterns via a daily diary. Follow up weeks were conducted under a no drug condition.
Compared to placebo treatment, marihuana use was reduced during citicoline treatment (weeks 3-10) as reported using the daily diaries. […] There is a group difference at baseline; this difference occurred because subjects were not matched for marihuana use in this study, and these subjects were not dependent on cannabis.

[4] = cited from earlier work; remark: listed apart in the source
cocaine dependent person = experiment: Wrist accelerometer (ActiWatch) sleep wake activity and marihuana cigarettes in a representative subject; assay type: in vivo, human; details: 500 mg twice daily citicoline, days 10-14 vs baseline
Protocol: FIG. 2 is a graph of activity of a representative cocaine dependent person two weeks prior to (Baseline) and two weeks after (Citicoline) treatment with citicoline. […] Marihuana cigarettes are depicted by the arrows. Each strip recording is a 24 hour period of consecutive days. Activity was determined by use of an accelerometer worn on the subject'[…] Score). Data in FIG. 2 also show a decrease in the number of marihuana cigarettes smoked and a more normalized, diurnal sleep pattern after treatment with citicoline. Subjects were given either placebo or 500 mg, twice daily of citicoline. […] The subject's binge use of marihuana (arrows on second day) is clearly defined. The bottom 4 tracings of FIG. 2 show the same subject on days 10-14 of citicoline treatment. […] This pattern continued throughout the 8 weeks of treatment for this subject.

## C[N+](C)(C)CCOP(=O)(O)OP(=O)([O-])OC[C@H]1O[C@@H](n2ccc(N)nc2=O)[C@H](O)[C@@H]1O [CDP-choline, cytidine 5′-diphosphocholine]
[1]; in vivo
  reported overdoses: no reported cases of overdoses
[1]; preclinical studies
  toxicity symptoms on ingestion of large amounts: common cholinergic symptoms (salivation, lacrimation, urination, defecation, and vomiting)
[2]
  tolerability in mammals: well tolerated
[3]
  marihuana use (cigarettes per week, daily diaries) compared to placebo: reduced
[4]; administered either orally or intravenously
  conversion into circulating metabolites: rapidly converted into the two major circulating metabolites, choline and cytidine
[4]; orally administered
  CDP-choline and/or its metabolites absorbed: more than 99%
  excreted in feces: less than 1%
[4]; share of dose
  excretion via lung: 12.9%
  excretion via urine: 2.4%
  rest of the dose metabolized and retained in tissues: 83.9%
Cocaine dependent person
  number of marihuana cigarettes smoked: decrease
Cocaine dependent person; continued throughout 8 weeks
  sleep wake profile (accelerometer activity): more normalized diurnal pattern of sleeping at night and became more active during the day

## CN(CC(=O)O)C(=N)N [Creatine, creatine]
[2]
  tolerability in humans: well tolerated at relatively high doses

## CC(=O)OC[C@H]1O[C@@H](n2ccc(=O)[nH]c2=O)[C@H](OC(C)=O)[C@@H]1OC(C)=O [triacetyl uridine]
[2]
  tolerability in mammals: well tolerated

## O=c1ccn([C@@H]2O[C@H](CO)[C@@H](O)[C@H]2O)c(=O)[nH]1 [uridine]
[2]
  tolerability in humans: well tolerated
  tolerability in mammals: well tolerated
